# Measurements from patent publication US10273262B2, “Crystalline form A of obeticholic acid and preparation method thereof” (CRYSTAL PHARMATECH CO., LTD., priority 2014, dated 2019).
# Conditions: ethyl acetate and n-heptane 1:9, 25° C., 500 rpm, 24 hours
# Excerpt: X-ray powder diffraction pattern in the present invention was acquired by a Panalytical Empyrean X-ray powder diffractometer. The parameters of the X-ray powder diffraction method of the present invention were as follows: • X-ray Reflection: Cu, Kα • Kα1 (Å): 1.540598; Kα2 (Å): 1.544426 • Kα2/Kα1 intensity ratio: 0.50 • Voltage: 45 (kV) • Current: 40 (mA) • Scan range: from 3.0 degree to 40.0 degree The pattern of differential scanning calorimetry (DSC) in the present invention was acquired by a TA Q200. The parameters of the differential scanning calorimetry (DSC) method of the present invention were as follow: • Heating rate: 10° C./min • Purge gas: nitrogen. The pattern of thermal gravimetric analysis (TGA) in the present invention was acquired by a TA Q5000. The parameters of the thermal gravimetric analysis (TGA) method of the present invention were as follow: • Heating rate: 10° C./min; • Purge gas: nitrogen.
# The suspension was stirred at 500 rpm in a thermostat at 25° C. for 24 hours, and centrifuged to give a solid which was tested by XRPD.
smiles,measurement,value
"CC[C@H]1[C@@H](O)[C@@H]2[C@H](CC[C@]3(C)[C@@H]([C@H](C)CCC(=O)O)CC[C@@H]23)[C@@]2(C)CC[C@@H](O)C[C@@H]12 [Form C, obeticholic acid]",Crystal form after stirring the suspension (form conversion by XRPD),transferred to crystalline Form A
